In ChEMBL document CHEMBL3507680, “University of Dundee, Gates Library screen for HepG2 cell viability” one finds cytotoxicity data, which are given here for 73 compounds.

This series is described as follows: Human HepG2 cell viability assay in 384 well format. In kind it is toxicity, cell-based. The arrangement: dose 125 nL, time 70.5 hour; concentration not given beside the values. The conditions noted are these: HepG2 cells, read-out: Inhibition.

As to `Cc1cc(C)n(C2CCCN(C(=O)CCNc3ncccn3)C2)n1` (stereo not drawn), the cytotoxicity at 70.5 h is -2.87%. As to `CCNC(c1ccc(C(C)C)cc1)c1cccnc1` (stereo not drawn), the cytotoxicity at 70.5 h was determined as 2.26%. Under `Cc1ccc(N2CCCC(NCC(=O)Nc3cc(C)nn3C)C2)nn1` (stereo not drawn) stands -4.79%; under `CCNC(c1ccc(Br)cc1)c1cccnc1` (stereo not drawn), 1.53%; under `CCNC(c1ccc(C)cc1)c1cccnc1` (stereo not drawn), 0.38%. On to `Cc1cc(C)n(C2CCCN(C(=O)CCCc3ccccn3)C2)n1` (stereo not drawn), for which the cytotoxicity at 70.5 h was -0.29%. In the case of `Cc1noc(CN2CCCC(Cn3nc(C)nc3C)C2)n1` (stereo not drawn), the cytotoxicity at 70.5 h is -6.06%. As for `Cc1ccc(NC2CCN(C(=O)Cc3ccc(C)s3)CC2)nn1`, the cytotoxicity at 70.5 h was -7.07%. For `CCc1ncc(C(=O)N2CCCC2Cn2cccn2)s1` (stereo not drawn) the value was 12.3%; for `CCc1noc(CN2CCCC(Cn3nc(C)nc3C)C2)n1` (stereo not drawn), -12.1%.

Regarding `Cc1nc(C)n(CC2CCCN(Cc3noc(C)n3)C2)n1` (stereo not drawn), the cytotoxicity at 70.5 h is -5.88%. Under `COc1ncccc1CNCc1c(C)nn(C)c1N(C)C` stands 19.7%; under `Cc1ccc(O)c(C(=O)N2CCCC(NC(=O)C(C)C)C2)c1` (stereo not drawn), -6.92%. In the case of `O=C(NCCc1cccs1)NCC(O)c1cccc(F)c1` (stereo not drawn), the cytotoxicity at 70.5 h is -7.4%. Regarding `Cc1ccc(-c2n[nH]cc2CNCC2CCN(CC(C)O)CC2)cc1` (stereo not drawn), the cytotoxicity at 70.5 h is -1.53%. For `COc1ccc(CCNC(=O)NCC(O)c2cccc(F)c2)cc1` (stereo not drawn) the value was 8.74%; for `O=C(c1cnc(C2CC2)s1)N1CCCC1Cn1cccn1` (stereo not drawn), -4.89%; for `CCOc1cccc2c1OCC(C(=O)NS(=O)(=O)c1c(C)noc1C)=C2`, -2.53%. For the compound `Cc1cnn(CC2CCCN2C(=O)c2cnc(-c3ccco3)s2)c1` (stereo not drawn), the cytotoxicity at 70.5 h is -9.06%.

With `CCN(c1cc(C)cc(C)c1)S(=O)(=O)c1cc(C(=O)O)cs1`, the cytotoxicity at 70.5 h is -7.47%. For `Cc1cnn(C2CCCN(C(=O)c3cn4ccccc4n3)C2)c1` (stereo not drawn) the value was 17.4%. Under `COC(=O)c1cccc(C(=O)NCc2ccc3c(c2)CCCN3C)c1` stands -3.61%; under `Cc1ccc(N(C)S(=O)(=O)c2cc(C(=O)O)cs2)c(C)c1`, 0.683%; under `CCn1cnnc1CNC(=O)N(C)Cc1cccc(OC(F)F)c1`, -0.632%. Regarding `CC(C)c1cnc(CN(C)C2CCN(CCn3cc(C#N)cn3)C2)o1` (stereo not drawn), the cytotoxicity at 70.5 h is -2.83%. For `Cc1nccn1CCCC(=O)N1CCCN(c2cccnn2)CC1`, the cytotoxicity at 70.5 h was -2.35%. `CN(C)c1ncccc1C(=O)N1CCCC1Cn1cccn1` (stereo not drawn): the cytotoxicity at 70.5 h is -5.68%. For `O=C(c1cnn(-c2ccccc2Cl)c1)N1CCN(CCO)CC1`, the cytotoxicity at 70.5 h is -5.36%. In the case of `Cc1nn(C)c(Cl)c1C1CCCN1C(=O)c1ccnn1C` (stereo not drawn), the cytotoxicity at 70.5 h was -14.4%. Under `COc1ccc(CNC(=O)NCCc2csc(C)n2)cn1` stands 10.9%; under `CN(CCc1ccccc1)Cc1nc2c(cnn2C)c(=O)[nH]1`, -10.9%; under `Cc1ncc(C(=O)N2CCCC(n3cccn3)C2)s1` (stereo not drawn), -11.8%. For `O=C(c1cnc(-c2ncccn2)s1)N1CCCC(n2cccn2)C1` (stereo not drawn) the value was -10.1%. In the case of `Cc1nc(C)n(CC2CCCN2c2ncnc3ccsc23)n1` (stereo not drawn), the cytotoxicity at 70.5 h is -5.53%. Consider `Cc1cnn(CC2CCCN2C(=O)c2ccccc2-n2cccn2)c1` (stereo not drawn), for which the cytotoxicity at 70.5 h is -12.6%. For the compound `COc1c(C2CCCN2C(=O)c2nccnc2N)c(C)nn1C` (stereo not drawn), the cytotoxicity at 70.5 h is -13%. With `Cc1ncncc1C(=O)N1CCCC1c1c(C)nn(C)c1Cl` (stereo not drawn), the cytotoxicity at 70.5 h is -10.6%. Under `Cc1nn(C)c(Cl)c1C1CCCN1C(=O)c1cnccn1` (stereo not drawn) stands -7.92%; under `O=C(CCCc1ccccn1)N1CCCC1c1noc(C2CC2)n1` (stereo not drawn), -9.72%.

Regarding `CN(Cc1nnc2n1CCC2)C(=O)c1ccc2c(c1)OCCO2`, the cytotoxicity at 70.5 h was 44.2%. For `Cc1csc(N2CCCN(C(=O)Cc3ccc(C)s3)CC2)n1` the value was 16.1%; for `CCOc1ccc(NC(=O)N(C)Cc2cnn(C)c2)c(C)c1`, -5.21%.

On to `CC(C)c1ccc(OCC(=O)N2CCOCC2c2ncon2)cc1` (stereo not drawn), for which the cytotoxicity at 70.5 h was -8.54%.

Take `Cc1csc(N2CCCN(C(=O)Cc3cccs3)CC2)n1`: the cytotoxicity at 70.5 h was -5.57%. For `CC(C)n1nc2c(cc1=O)CN(CCCN1CCCC1=O)CC2` the value was -9.82%; for `CC(C(=O)NCc1ccc(N2CCCC2)nc1)S(C)(=O)=O` (stereo not drawn), 15.7%.

Take `CC(C(=O)NCc1ccc(N2CCCCC2)nc1)S(C)(=O)=O` (stereo not drawn): the cytotoxicity at 70.5 h was -5.42%. Under `Cc1csc(N2CCN(C(=O)NCCNc3ncccn3)CC2)n1` stands -5.98%; under `O=C(NCCNc1ncccn1)C1CC(=O)N(Cc2ccccc2)C1` (stereo not drawn), -8.64%.

Take `COc1ccc(NC(=O)NCCCn2nc3ccccn3c2=O)cc1`: the cytotoxicity at 70.5 h is -3.39%. For `O=C(NCCCn1nc2ccccn2c1=O)Nc1ccccc1Cl` the value was 0.153%; for `Cc1cnn(CC2CN(CC(=O)N(C)Cc3cccs3)CCO2)c1` (stereo not drawn), -1.56%. On to `Cc1cc(C)n(CC2CCCCN2C(=O)c2ccc3nncn3c2)n1` (stereo not drawn), for which the cytotoxicity at 70.5 h is -2.04%.

Regarding `CCc1nc(C2CCCN2C(=O)c2c[nH]c(C)n2)no1` (stereo not drawn), the cytotoxicity at 70.5 h was determined as 27.8%. For `CCc1nc(C2CCCN2C(=O)c2cc(C3CC3)[nH]n2)no1` (stereo not drawn) the value was -1.42%.

Consider `O=C(NCc1ccccc1-n1cccn1)N1CCN2CCCCC2C1` (stereo not drawn), for which the cytotoxicity at 70.5 h stood at 1.19%. For the compound `Cc1nn(C)cc1CCC(=O)N1CCCC(n2cncn2)C1` (stereo not drawn), the cytotoxicity at 70.5 h turned out to be 6.4%.

With `Cc1nc(C)n(CC2CCCN2Cc2cn(-c3ccccc3)nn2)n1` (stereo not drawn), the cytotoxicity at 70.5 h was 2.44%.

Consider `O=C(Cc1csc(-c2nnc[nH]2)n1)N1CCCC1Cn1cccn1` (stereo not drawn), for which the cytotoxicity at 70.5 h was -8.18%. Under `CN(C)CC1CN(Cc2nnc(-c3ccccc3Cl)o2)CCO1` (stereo not drawn) stands 3.65%; under `CN(C)CC1CN(Cc2coc(-c3ccccc3Cl)n2)CCO1` (stereo not drawn), 7.1%.

As for `CCN(CC)C1CCN(C(=O)NCc2nncn2CC)CC1`, the cytotoxicity at 70.5 h is -0.0969%.

With `CC(NC(=O)N1CCN(c2ccccc2)CC1)c1nncn1C` (stereo not drawn), the cytotoxicity at 70.5 h was -15.6%. Under `Cn1ncc(NCc2cc(F)cc(F)c2)c(Cl)c1=O` stands -7.18%; under `CC1CN(c2ccc(CNC(=O)c3ccn(C)c(=O)c3)cn2)CCO1` (stereo not drawn), -8.78%; under `Cc1cc(NC(=O)N(CC2CCOC2)C2CC2)no1` (stereo not drawn), -11.9%. Regarding `Cc1noc(C2CCN(Cc3cc(=O)n(C)c(=O)n3C)CC2)n1`, the cytotoxicity at 70.5 h is -13.2%.

Take `Cn1cnnc1C1CCCN(C(=O)c2cc(Cl)c3c(c2)OCO3)C1` (stereo not drawn): the cytotoxicity at 70.5 h was -11.6%. For `CCCn1[nH]cc/c1=N\C(=O)CN1CCOC(Cn2cc(C)cn2)C1` (stereo not drawn) the value was -14.6%; for `Cn1ncc(NCc2cccc(COC(C)(C)C)c2)c(Cl)c1=O`, 7.28%; for `CC(CC#N)NC(=O)c1cc(Br)c2c(c1)OCCO2` (stereo not drawn), 0.544%. Under `Cn1cnc2c1CCN(CCCc1ccccc1)C2` stands -1.08%; under `Cn1ccc(C(=O)NCc2ccc(N3CCCC3)nc2)cc1=O`, -5.51%.
